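Test compounds were applied to cells in 96-well plates for 48 hours at 5 doses. The concentration for full growth arrest is given as TGI.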
What was measured:
Test in all cases: growth of human tumour cells (NCI), 48 h
UACC-62 melanoma = tested on: UACC-62 melanoma
NCI-H522 lung = tested on: NCI-H522 lung
SK-MEL-28 melanoma = tested on: SK-MEL-28 melanoma
NCI-H23 lung = tested on: NCI-H23 lung
SF-268 CNS = tested on: SF-268 CNS
RPMI-8226 leukemia = tested on: RPMI-8226 leukemia
CCRF-CEM leukemia = tested on: CCRF-CEM leukemia
MDA-MB-231 breast = tested on: MDA-MB-231 breast
CAKI-1 renal = tested on: CAKI-1 renal
HCT-116 colon = tested on: HCT-116 colon
M14 melanoma = tested on: M14 melanoma
PC-3 prostate = tested on: PC-3 prostate
SNB-19 CNS = tested on: SNB-19 CNS
MOLT-4 leukemia = tested on: MOLT-4 leukemia
HL-60(TB) leukemia = tested on: HL-60(TB) leukemia
MCF7 breast = tested on: MCF7 breast
SF-539 CNS = tested on: SF-539 CNS
EKVX NSCLC = tested on: EKVX NSCLC
K-562 leukemia = tested on: K-562 leukemia
SR leukemia = tested on: SR leukemia

Row | SMILES | TGI (UACC-62 melanoma) [µM] | TGI (NCI-H522 lung) [µM] | TGI (SK-MEL-28 melanoma) [µM] | TGI (NCI-H23 lung) [µM] | TGI (SF-268 CNS) [µM] | TGI (RPMI-8226 leukemia) [µM] | TGI (CCRF-CEM leukemia) [µM] | TGI (MDA-MB-231 breast) [µM] | TGI (CAKI-1 renal) [µM] | TGI (HCT-116 colon) [µM] | TGI (M14 melanoma) [µM] | TGI (PC-3 prostate) [µM] | TGI (SNB-19 CNS) [µM] | TGI (MOLT-4 leukemia) [µM] | TGI (HL-60(TB) leukemia) [µM] | TGI (MCF7 breast) [µM] | TGI (SF-539 CNS) [µM] | TGI (EKVX NSCLC) [µM] | TGI (K-562 leukemia) [µM] | TGI (SR leukemia) [µM]
1 | Clc1ccc(Oc2ccc(N=Cc3ccc(Cl)cc3Cl)cc2Cl)cc1 | > 100 | 92 | > 100 | > 100 | > 100 | > 100 | 44.8 | > 100 | > 100 | > 100 | 68 | > 100 | > 100 | > 100 | 57.6 | > 100 | 65.1 | > 100 | – | –
2 | O=[N+]([O-])c1cccc2nc3ccccc3c(NCCc3cccc[n+]3[O-])c12 | 0.211 | 0.157 | < 0.01 | 0.0661 | 0.202 | 0.0679 | – | 0.0538 | 0.901 | – | < 0.0172 | 1.51 | 1.62 | – | 0.277 | 0.276 | 0.194 | 0.121 | > 100 | 0.161
3 | CC1(C)CC[C@]2(C)CC=C3[C@]4(C)CC[C@H]5C(C)(C)C(=O)CC[C@]5(C)[C@H]4CC[C@@]3(C)[C@H]2C1 | > 100 | > 100 | > 100 | > 100 | > 100 | > 100 | > 100 | > 100 | > 100 | > 100 | > 100 | > 100 | > 100 | > 100 | – | > 100 | > 100 | > 100 | – | > 100
4 | O=C(O)C1CCCN1Cc1cc2ccccc2c2ccccc12 (stereo unspecified) | > 100 | > 100 | > 100 | > 100 | > 100 | > 100 | – | > 100 | > 100 | > 100 | > 100 | > 100 | > 100 | > 100 | > 100 | > 100 | > 100 | > 100 | > 100 | –
5 | CC1CC[C@@]2(OC1)OC1C[C@H]3[C@@H]4C/C(=N\N(C)C)[C@@]5(O)CC(O)CC[C@]5(C)[C@H]4CC[C@]3(C)C1[C@@H]2C (stereo partly specified) | > 100 | – | > 100 | > 100 | > 100 | > 100 | > 100 | > 100 | – | 76.1 | > 100 | > 100 | > 100 | > 100 | 54.3 | > 100 | > 100 | – | > 100 | 54.6
6 | O=C(/C=C/c1ccc(Cl)cc1)Oc1ccc(/C=C2\CCCCC2=O)cc1 | > 100 | > 100 | > 100 | > 100 | > 100 | > 100 | > 100 | > 100 | > 100 | > 100 | > 100 | > 100 | – | 73.9 | > 100 | > 100 | > 100 | > 100 | – | > 100
7 | CC(N)C(C)Cc1ccccc1 (stereo unspecified) | > 100 | > 100 | > 100 | > 100 | > 100 | > 100 | – | > 100 | > 100 | > 100 | > 100 | > 100 | > 100 | > 100 | > 100 | > 100 | – | > 100 | > 100 | –
8 | O=c1[nH]c(=O)n(C2CC(O)C(CO)O2)cc1OCCCc1ccccc1 (stereo unspecified) | > 100 | > 100 | > 100 | > 100 | > 100 | > 100 | > 100 | > 100 | > 100 | > 100 | > 100 | > 100 | > 100 | > 100 | > 100 | > 100 | – | > 100 | > 100 | –
9 | CC(C)NC(=O)CN1CCN(C2=CC(=O)c3c(O)ccc(O)c3C2=O)CC1 | 13.3 | 34.5 | 31.6 | 24.3 | 53.1 | > 100 | > 95.2 | > 63.5 | > 60.7 | 9.79 | 22.3 | > 80.5 | 37.2 | > 100 | 5.99 | 9.35 | 30.5 | 33.6 | > 100 | –
10 | O=C(CC(=O)N1N=C(N2CCCCC2)CC1c1ccccc1)Nc1ccc(Cl)cc1 (stereo unspecified) | > 100 | > 100 | > 100 | > 100 | > 100 | – | > 100 | > 100 | > 100 | > 100 | > 100 | > 100 | > 100 | > 100 | > 100 | > 100 | – | > 100 | – | –
11 | COc1ccc(N=C(C)c2ccncc2)cc1 | > 100 | > 100 | > 100 | > 100 | > 100 | > 100 | > 100 | > 100 | > 100 | > 100 | > 100 | > 100 | > 100 | > 100 | – | > 100 | 61.4 | > 100 | > 100 | –
12 | O=C1CCC[C@]2(CCC[C@@H](O)C2)N1 | – | > 100 | – | – | > 100 | – | > 100 | > 100 | > 100 | > 100 | > 100 | > 100 | > 100 | – | > 100 | > 100 | > 100 | > 100 | > 100 | –
13 | CC1(C)C(=O)C(C)(C)C12SSC1(S2)C(C)(C)C(=O)C1(C)C | > 100 | – | > 100 | > 100 | > 100 | > 100 | – | > 100 | > 100 | > 100 | > 100 | > 100 | > 100 | > 100 | 21.1 | > 100 | > 100 | > 100 | > 100 | > 100

Source: PubChem BioAssay (NCI)
